Drawing on US20240217967A1, “INDOLINE DERIVATIVES AS DDRS INHIBITORS” (CHIESI FARMACEUTICI S.P.A., priority 2021, published 2024), this text covers IC50 and Ki for 18 compounds.

The target in experiment [1] is T1, DDR1 (Homo sapiens, UniProt Q08345). Put plainly: DDR1 cell based assay (PathHunter U2OS DDR1, collagen II stimulation). The settings on record: U2OS-DDR1 cells, bovine Type II Collagen stimulation. Put shortly: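 U2OS-DDR1 PathHunter cells preincubated 30 min with compound, then stimulated overnight at 37 °C with 20 μg/ml bovine type II collagen. Luminescent complementation signal read after 1 h detection at room temperature; normalized to vehicle (0%) and collagen-only (100%) controls, IC50 from variable-slope sigmoidal fit.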
T1 sequence (Q08345 19-913): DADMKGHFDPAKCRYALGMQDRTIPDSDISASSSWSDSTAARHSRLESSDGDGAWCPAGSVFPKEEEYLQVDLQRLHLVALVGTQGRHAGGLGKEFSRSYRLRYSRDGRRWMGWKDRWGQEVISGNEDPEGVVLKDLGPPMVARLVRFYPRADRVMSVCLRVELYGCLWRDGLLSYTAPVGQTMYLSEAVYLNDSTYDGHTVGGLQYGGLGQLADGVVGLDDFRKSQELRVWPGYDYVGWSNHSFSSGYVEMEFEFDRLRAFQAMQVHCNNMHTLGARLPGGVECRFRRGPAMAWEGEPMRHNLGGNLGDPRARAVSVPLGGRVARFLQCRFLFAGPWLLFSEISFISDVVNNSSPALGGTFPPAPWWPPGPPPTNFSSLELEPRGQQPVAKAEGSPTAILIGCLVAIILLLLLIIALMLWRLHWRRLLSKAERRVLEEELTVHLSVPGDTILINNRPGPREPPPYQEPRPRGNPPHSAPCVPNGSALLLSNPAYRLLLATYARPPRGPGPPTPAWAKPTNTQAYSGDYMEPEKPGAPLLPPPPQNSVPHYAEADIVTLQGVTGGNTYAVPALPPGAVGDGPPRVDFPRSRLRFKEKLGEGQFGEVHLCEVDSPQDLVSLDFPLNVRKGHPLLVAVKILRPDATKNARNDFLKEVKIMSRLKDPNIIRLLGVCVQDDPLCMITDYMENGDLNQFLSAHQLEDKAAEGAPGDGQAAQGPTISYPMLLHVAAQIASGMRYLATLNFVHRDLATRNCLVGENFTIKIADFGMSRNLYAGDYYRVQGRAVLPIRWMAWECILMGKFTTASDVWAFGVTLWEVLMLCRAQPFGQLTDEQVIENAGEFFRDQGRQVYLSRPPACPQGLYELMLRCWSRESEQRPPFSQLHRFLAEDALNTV

The target in experiment [2] is T1, DDR1. Nature of the experiment: DDR1 LanthaScreen Europium Kinase Binding assay. The settings on record: binding affinity; IC50 converted in Ki using Cheng-Prusoff; read-out: Ki DDR1. Summed up:
(§1)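 Binding by TR-FRET tracer displacement: compounds incubated 1 h at room temperature with 5 nM DDR1 plus 20 nM Kinase Tracer 178, or 5 nM DDR2 plus 10 nM tracer, and 2 nM Eu anti-GST antibody in pH 7.5 HEPES/MgCl2/EGTA/BRIJ35 buffer. 665/615 nm ratio gave four-parameter IC50, converted to Ki via Cheng-Prusoff.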
On the technique in general: In TR-FRET formats the signal depends on donor and acceptor labels being close together.

For experiment [3], the target named is T2, DDR2 (Homo sapiens, UniProt Q16832).
T2 sequence (Q16832 22-855): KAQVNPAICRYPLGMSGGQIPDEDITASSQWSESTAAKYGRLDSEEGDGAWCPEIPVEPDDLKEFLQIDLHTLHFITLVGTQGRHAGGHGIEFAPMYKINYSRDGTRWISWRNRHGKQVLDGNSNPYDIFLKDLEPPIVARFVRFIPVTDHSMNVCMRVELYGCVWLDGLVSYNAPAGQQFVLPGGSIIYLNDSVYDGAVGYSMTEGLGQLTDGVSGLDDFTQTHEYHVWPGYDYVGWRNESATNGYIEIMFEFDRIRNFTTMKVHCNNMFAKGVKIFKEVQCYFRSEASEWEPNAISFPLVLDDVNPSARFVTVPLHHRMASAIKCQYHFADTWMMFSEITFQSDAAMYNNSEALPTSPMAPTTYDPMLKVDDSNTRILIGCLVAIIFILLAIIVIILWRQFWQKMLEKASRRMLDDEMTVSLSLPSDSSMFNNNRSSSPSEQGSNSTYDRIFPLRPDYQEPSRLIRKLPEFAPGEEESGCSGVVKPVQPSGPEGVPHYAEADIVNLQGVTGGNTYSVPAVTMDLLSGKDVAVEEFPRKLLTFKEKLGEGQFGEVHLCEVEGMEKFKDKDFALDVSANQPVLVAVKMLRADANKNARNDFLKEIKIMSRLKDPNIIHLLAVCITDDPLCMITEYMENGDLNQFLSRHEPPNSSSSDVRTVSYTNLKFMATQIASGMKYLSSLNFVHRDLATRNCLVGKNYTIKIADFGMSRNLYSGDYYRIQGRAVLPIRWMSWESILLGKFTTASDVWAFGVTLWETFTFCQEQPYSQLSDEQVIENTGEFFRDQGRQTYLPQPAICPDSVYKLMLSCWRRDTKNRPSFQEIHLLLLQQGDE
Nature of the experiment: DDR2 cell based assay (phospho-ELISA in HEK293T-DDR2 recombinant cells, collagen II stimulation). The settings on record: bovine Type II Collagen stimulation. As for the experimental part:
The inhibition of DDR2 phosphorylation by compounds was evaluated in HEK293T-DDR2 recombinant cells by phospho-ELISA assay. Briefly, HEK293T-DDR2 cells were seeded in poly-D-lysine-coated 24-well plates at a density of 250.000 cells/well and incubated for 1.5 hours at 37° C. and 5% CO2 in DMEM+10% FBS. After that, the medium was changed to serum-free DMEM and cells were incubated for 3 hours. Then. test compounds were added at different concentrations 30 minutes before stimulation with bovine Type II Collagen at 50 μg/ml for further 3 hours. For DDR2 phospho-ELISA assay (DuoSet IC Human Phospho-DDR2; R&D Systems), protein extracts were obtained by adding 60 μl/well of lysis buffer prepared according to the manufacturer's instructions. Protein concentration in the samples was determined by BCA assay and the levels of phospho-DDR2 were determined following R&D Systems indications. Raw data were normalized to maximal inhibition control (0% for normalization) and positive control (100% for normalization; cells treated with […] collagen II) and IC50 parameters were calculated in GraphPad Prism 8.0 software, using sigmoidal dose-response curve fitting with variable slope.
In general terms: In an ELISA, binding on a coated surface is turned into a signal by an enzyme label.

In experiment [4] the target is T2, DDR2. Put plainly: DDR2 LanthaScreen Europium Kinase Binding assay. The note with it: binding affinity; IC50 converted in Ki using Cheng-Prusoff; read-out: Ki DDR2. Put shortly: as §1

Turning to `CN1CCN(Cc2cc(NC(=O)c3ccc4c(c3)N(Cc3cnc5[nH]ccc5c3)CC4)cc(C(F)(F)F)c2)CC1` [Example 9, 1-((1H-pyrrolo[2,3-b]pyridin-5-yl)methyl)-N-(3-((4-methylpiperazin-1-yl)methyl)-5-(trifluoromethyl)phenyl)indoline-6-carboxamide], the concentration for half-maximal inhibition (IC50) against DDR1 [1] and at DDR2 [3] was less than 25 nM each time. For the same compound, the Ki at DDR1 [2] and on DDR2 [4] was less than 25 nM each time.

On to `Cc1n[nH]c2ncc(CN3CCc4ccc(C(=O)Nc5cncc(C(F)(F)F)c5)cc43)cc12` [Example 71, 1-((3-methyl-1H-pyrazolo[3,4-b]pyridin-5-yl)methyl)-N-(5-(trifluoromethyl)pyridin-3-yl)indoline-6-carboxamide], for which the IC50 – broadly, the concentration that inhibits the measured activity by half – on DDR1 [1] is less than 25 nM. For the same compound, the Ki at DDR1 [2] and on DDR2 [4] was less than 25 nM each time.

At DDR1 [1], `CC1CN(Cc2cnc3[nH]ccc3c2)c2cc(C(=O)Nc3cccc(C(F)(F)F)c3)ccc21` (stereo not shown) [Example 32, 1-((1H-pyrrolo[2,3-b]pyridin-5-yl)methyl)-3-methyl-N-(3-(trifluoromethyl)phenyl)indoline-6-carboxamide] returned an IC50 of less than 25 nM. In addition, the inhibitory constant (Ki) at DDR1 [2] and at DDR2 [4] was 25 to 50 nM each time.

In the case of `O=C(Nc1cccc(OC(F)(F)F)c1)c1ccc2c(c1)N(Cc1cnc3ccccn13)CC2` [Example 55, 1-(imidazo[1,2-a]pyridin-3-ylmethyl)-N-(3-(trifluoromethoxy)phenyl)indoline-6-carboxamide], the IC50 on DDR1 [1] was less than 25 nM. For the same compound, the inhibition constant (Ki) (usually the dissociation constant of the complex between target and ligand, obtained from inhibition or displacement) on DDR1 [2] was less than 25 nM; at DDR2 [4], 25 to 50 nM.

The compound `O=C(Nc1cccc(OC(F)(F)F)c1)c1ccc2c(c1)N(Cc1ccc3[nH]cnc3c1)CC2` [Example 61, 1-((1H-benzo[d]imidazol-5-yl)methyl)-N-(3-(trifluoromethoxy)phenyl)indoline-6-carboxamide] came in with an IC50 at DDR1 [1] of 50 to 80 nM. For the same compound, the Ki on DDR1 [2] and on DDR2 [4] was 25 to 50 nM throughout.

Regarding `O=C(Nc1cc(CN2CCCC2)cc(C(F)(F)F)c1)c1ccc2c(c1)N(Cc1cnc3cnccn13)CC2` [Example 50, 1-(imidazo[1,2-a]pyrazin-3-ylmethyl)-N-(3-(pyrrolidin-1-ylmethyl)-5-(trifluoromethyl)phenyl)indoline-6-carboxamide], the IC50 against DDR1 [1] is 25 to 50 nM. Also, the Ki on DDR1 [2] and at DDR2 [4] was less than 25 nM in each case.

As to `O=C(Nc1cccc(C(F)(F)F)c1)c1ccc2c(c1)N(Cc1cnc3ccnn3c1)CC2` [Example 63, 1-(pyrazolo[1,5-a]pyrimidin-6-ylmethyl)-N-(3-(trifluoromethyl)phenyl)indoline-6-carboxamide], at DDR1 [1], the IC50 lay in the range of 50 to 80 nM. Moreover, the inhibition constant Ki at DDR1 [2] and at DDR2 [4] was less than 25 nM throughout.

Compound `Cc1n[nH]c2ncc(CN3CCc4ccc(C(=O)Nc5cc(C(=O)N6CCN(C)CC6)cc(C(F)(F)F)c5)cc43)cc12` [Example 74, 1-((3-methyl-1H-pyrazolo[3,4-b]pyridin-5-yl)methyl)-N-(3-(4-methylpiperazine-1-carbonyl)-5-(trifluoromethyl)phenyl)indoline-6-carboxamide] showed an IC50 on DDR1 [1] of less than 25 nM. In addition, the inhibition constant (Ki) at DDR1 [2] and at DDR2 [4] was less than 25 nM each time.

`Cc1cn(-c2cc(NC(=O)c3ccc4c(c3)N(Cc3ccc5ccncc5c3)CC4)cc(C(F)(F)F)c2)cn1` [Example 5, 1-(isoquinolin-7-ylmethyl)-N-(3-(4-methyl-1H-imidazol-1-yl)-5-(trifluoromethyl)phenyl)indoline-6-carboxamide]: the IC50 at DDR1 [1] is 25 to 50 nM. The Ki at DDR1 [2] was in the range of 25 to 50 nM; at DDR2 [4] it was 50 to 80 nM.

Regarding `CN1CCN(Cc2ccc(NC(=O)c3ccc4c(c3)N(Cc3cnc5ccnn5c3)CC4)cc2C(F)(F)F)CC1` [Example 76, N-(4-((4-methylpiperazin-1-yl)methyl)-3-(trifluoromethyl)phenyl)-1-(pyrazolo[1,5-a]pyrimidin-6-ylmethyl)indoline-6-carboxamide], the IC50 against DDR1 [1] was less than 25 nM. Besides, the Ki at DDR1 [2] and at DDR2 [4] was less than 25 nM each time.

For the compound `Cn1nc(NC(=O)c2ccc3c(c2)N(Cc2cnc4cnccn24)CC3)cc1C(C)(C)C` [Example 87, N-(5-(tert-butyl)-1-methyl-1H-pyrazol-3-yl)-1-(imidazo[1,2-a]pyrazin-3-ylmethyl)indoline-6-carboxamide], the 50% inhibitory concentration (IC50) against DDR1 [1] is 25 to 50 nM. Besides, the Ki on DDR1 [2] and on DDR2 [4] was less than 25 nM each time.

In turn, `CN(C)Cc1c[nH]c2ncc(CN3CCc4ccc(C(=O)Nc5cccc(C(F)(F)F)c5)cc43)cc12` [Example 90, 1-((3-((dimethylamino)methyl)-1H-pyrrolo[2,3-b]pyridin-5-yl)methyl)-N-(3-(trifluoromethyl)phenyl)indoline-6-carboxamide] returned an IC50 against DDR1 [1] of less than 25 nM. Also, the Ki at DDR1 [2] and at DDR2 [4] was less than 25 nM each time.

Regarding `Cc1cn(-c2cc(NC(=O)c3ccc4c(c3)N(Cc3cnc5[nH]ncc5c3)CC4C)cc(C(F)(F)F)c2)cn1` (stereo not shown) [Example 24, 1-((1H-pyrazolo[3,4-b]pyridin-5-yl)methyl)-3-methyl-N-(3-(4-methyl-1H-imidazol-1-yl)-5-(trifluoromethyl)phenyl)indoline-6-carboxamide], on DDR1 [1], the IC50 was less than 25 nM. The Ki at DDR1 [2] and at DDR2 [4] was 25 to 50 nM throughout.

With `Cc1cn(-c2cc(NC(=O)c3ccc4c(c3)N(C(=O)c3cnc5ccccn35)CC4)cc(C(F)(F)F)c2)cn1` [Example 12, 1-(imidazo[1,2-a]pyridine-3-carbonyl)-N-(3-(4-methyl-1H-imidazol-1-yl)-5-(trifluoromethyl)phenyl)indoline-6-carboxamide], the IC50 against DDR1 [1] is 50 to 80 nM. Besides, the Ki at DDR1 [2] and on DDR2 [4] was less than 25 nM each time.

Consider `CC(C)(c1cc(NC(=O)c2ccc3c(c2)N(Cc2cnc4cnccn24)CC3)no1)C(F)(F)F` [Example 45, 1-(imidazo[1,2-a]pyrazin-3-ylmethyl)-N-(5-(1,1,1-trifluoro-2-methylpropan-2-yl)isoxazol-3-yl)indoline-6-carboxamide], for which the IC50 at DDR1 [1] fell in the range of 25 to 50 nM. Also, the Ki at DDR1 [2] and at DDR2 [4] was less than 25 nM throughout.

`CC(C)(c1cc(NC(=O)c2ccc3c(c2)N(Cc2cnc4ccccn24)CC3)no1)C(F)(F)F` [Example 58, 1-(imidazo[1,2-a]pyridin-3-ylmethyl)-N-(5-(1,1,1-trifluoro-2-methylpropan-2-yl)isoxazol-3-yl)indoline-6-carboxamide] showed an IC50 against DDR1 [1] of less than 25 nM. The Ki on DDR1 [2] is 25 to 50 nM; at DDR2 [4], less than 25 nM.

Turning to `O=C(Nc1cc(F)cc(C(F)(F)F)c1)c1ccc2c(c1)N(Cc1cnc3cnccn13)CC2` [Example 41, N-(3-fluoro-5-(trifluoromethyl)phenyl)-1-(imidazo[1,2-a]pyrazin-3-ylmethyl)indoline-6-carboxamide], the IC50 at DDR1 [1] lay in the range of 25 to 50 nM. Further, the Ki at DDR1 [2] and on DDR2 [4] was less than 25 nM each time.

Compound `CN1CCN(Cc2cc(C(=O)Nc3ccc4c(c3)N(C(=O)c3cnc5ccccn35)CC4)cc(C(F)(F)F)c2)CC1` [Example 16, N-(1-(imidazo[1,2-a]pyridine-3-carbonyl)indolin-6-yl)-3-((4-methylpiperazin-1-yl)methyl)-5-(trifluoromethyl)benzamide] returned an IC50 at DDR1 [1] of 25 to 50 nM. Besides, the Ki on DDR1 [2] and on DDR2 [4] was less than 25 nM each time.
